Experimental findings from patent publication US8759363B2, “Quinazoline-based T cell proliferation inhibitors” (Yissum Research Development Company of the Hebrew …, priority 2010, dated 2014) are described below.

One test deals with CD3+ cells. The test can be described thus: Proliferation of CD3+ cells purified from PBMC, BrdU. Type of test: cell-based. As to conditions: Homo sapiens, ConA-stimulated, slightly higher than, read-out: IC50 proliferation of isolated CD3+ cells. As to the method:
Blood samples were taken from healthy donors and loaded on a Ficoll density gradient to purify the PBMC population. T cells were purified by human anti-CD3 using an autoMACS instrument (Miltenyi Biotec, Bergisch-Gladbach, Germany), according to the manufacturer's instructions. The identity of T cells was confirmed by flow cytometry, as they stained positive for CD3. Cells were stimulated with ConA (10 μg/ml), ODN2006 (0.5 μg/ml; Enzo Life Sciences), or LPS (50 μg/ml; Sigma-Aldrich, Steinheim, Germany), for 72 h in the presence of the inhibitor, and their proliferation was measured in the BrdU incorporation assay as will be later described.
Proliferation was assessed by BrdU incorporation using a colorimetric ELISA kit (Roche, Germany). Subsequent to labeling with 10 μM BrdU, DNA was denatured and the cells were incubated with anti-BrdU-POD, prior to the addition of colorimetric substrate (TMB). The reaction product was quantified by measuring absorbance at 450 nm in an ELISA plate reader (ELx800 BIO-TEK Instruments Inc.).
PBMC consist of a mixture of mononucleated cells, mostly T cells. To identify the cell type that was inhibited by 2, we first purified T cells from PBMC with an autoMACS apparatus (Miltenyi Biotec), using anti-CD3 antibodies. We were now able to compare three cell populations: total PBMC, CD3+ cells purified from PBMC, and PBMC that had been depleted of CD3+ cells. […]

Another test deals with PC3. The test can be described thus: PC-3 proliferation, BrdU uptake. The class given is cell-based. Particulars: Homo sapiens.
In a further test the test system is TEA (stimulated) cells. The test can be described thus: MLR with resting control cells, stimulated TEA cells. Type of test: cell-based, mouse. Particulars: 0.5 μM, 72 h MLR with IL-7; no inhibitor 3850. The text has this:
The aim of this test was to determine whether 2 affects only the proliferating cells or there is a general mechanism affecting all cell numbers. For this purpose we mixed 3 cell types: […]: BALB/c, 2C and OT1; […]: CB6F1, TEA and OT2. The OT1 and OT2 are splenocytes that were isolated from OT1 and OT2 mice (Jackson Laboratories, Bar Harbor, Me.),
Thus, the ability to monitor the fate of proliferation and resting cells by FACS was enabled due to the use of the MLR described above for CD4+ and CD8+ and the addition of OT2 and OT1 splenocytes, respectively.
Proliferating cells often secrete cytokines that induce survival of neighbouring cells; since the proliferation was expected to be inhibited we added 50 ng/ml of IL-7. This concentration is sufficient to keep the cells alive, but not to induce proliferation.
The number of TEA and OT2 cells that were treated with 0.5 μM 2 was 1452 and 826, respectively, while the number of 2C and OT1 cells that were treated with 0.5 μM 21 was 3003 and 903, respectively. This is depicted as a bar-graph in FIG. 9C.

Test [1] relates to NIH 3T3, A-431, MDA-MB-468, PANC-1, human keratinocytes. The test can be described thus: Growth of non-hematopoietic cell lines. Type of test: cell-based. As to conditions: at high concentrations at which Jurkat and PBMC growth was strongly inhibited. How it is done: The inhibitor-treated cultures and controls were fixed in glutaraldehyde, 0.05% final concentration, for 10 min at room temperature. After washing, the plates were stained with 0.1% methylene blue in 0.1 M borate buffer, for 60 min at room temperature. The plates were rigorously washed to remove excess dye and dried. The dye taken up by cells was eluted in 0.1N HCl for 60 min at 37° C., and the OD of the solution was read at 620 nm. In preliminary titration experiments, linear readings were obtained for 1×10^3 to 4×10^4 cells/well.
To characterize the mode of action of 2 (S101) in more detail, we first examined whether 2 inhibits non-hematopoietic cell lines. We studied the effect of 2 on the growth of four cell lines: NIH 3T3 (mouse embryonic fibroblasts), A-431 (human vulval carcinoma cells), MDA-MB-468 (human breast carcinoma cells), and PANC-1 (human pancreatic carcinoma cells) (FIGS. 1A-B). We also tested the inhibitors on human keratinocytes. […] We also examined the effect of 2 on BrdU uptake by stimulated and non-stimulated PC-3 (human prostate cancer), HEK293 (human embryonic kidney), NIH-3T3, A375 (human malignant melanoma), and MDA-MB-231 (human breast adenocarcinoma).

pIC50: −log10 of the molar value. Like-named read-outs stand apart in the source and are kept apart here.

Turning to `COc1cc(-c2nc(Nc3ccc(C)cc3)c3ccccc3n2)cc(OC)c1OC` [Compound 2, N-p-tolyl-2-(3,4,5-trimethoxyphenyl)quinazolin-4-amine], the pIC50 was < 7.00 in the test on CD3+ cells; ~5.00 with PC3 (PC3, non-stimulated, read-out: IC50 of non-stimulated cells); < 5.00 with PC3 (PC3, stimulated, read-out: IC50 of stimulated cells). Moreover, in the test on TEA (stimulated) cells, the “number of TEA (stimulated) cells” value amounted to 1452. Besides, the “effect on growth of non-hematopoietic cell types” value in test [1] was “slightly affected”.
